Consider four compounds from article PMC6478823, “A suite of phenotypic assays to ensure pipeline diversity when prioritizing drug-like Cryptosporidium growth inhibitors” (Nature Communications, 2019).

Where two headings read alike, the source gives them in different places.

The subject of test [1] is C. parvum. The test is described as follows: 48 h Cryptosporidium growth inhibition assay. The test is classed as cell-based, Cryptosporidium parvum. Particulars: compound added 3 h post-infection, read at 48 h. Put shortly: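 HCT-8 monolayers were infected with excysted C. parvum Iowa oocysts (5500/well), with compounds added 3 h post-infection and incubation for a further 45 h at 37 °C. Vacuoles were stained with fluorescein–Vicia villosa lectin and nuclei with Hoechst, then imaged and counted automatically to derive EC50 and EC90.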

Test [2] concerns C. parvum. The test is described as follows: DNA replication assay (EdU incorporation). The class given is cell-based, Cryptosporidium parvum. Particulars: compound at EC90; for DNA Synthesis Assay: Mean % Inhibition of EdU-labeling (normalized to parasite numbers), Average: average of replicates; for DNA Synthesis Assay: Mean % Inhibition of EdU-labeling (normalized to parasite numbers), Replicate 1: single replicate 1; for DNA Synthesis Assay: Mean % Inhibition of EdU-labeling (normalized to parasite numbers), Replicate 2: single replicate 2; for DNA Synthesis Assay: Mean % Inhibition of EdU-labeling (normalized to parasite numbers), Replicate 3: single replicate 3; for DNA synthesis: yes/no grouping by phenotypic assay result.

The subject of test [3] is C. parvum. Description: Egress, motility, reinvasion assay (PV ratio). Particulars: compound at EC90; for Egress and Reinvasion Assay: Mean PV ratios (19.5h:6h), Average: average of replicates; for Egress and Reinvasion Assay: Mean PV ratios (19.5h:6h), Replicate 1a: single replicate 1; for Egress and Reinvasion Assay: Mean PV ratios (19.5h:6h), Replicate 2a: single replicate 2.
Protocol: For quantification of parasitophorous vacuoles over time, HCT-8 cells were grown to greater than 90% confluence in 384-well plates and infected with 11,000 oocysts after triggering excystation.

The mark [4] stands for this setting: read-out: Regular 3 to 48 h assay in vitro EC90, C. parvum in HCT-8 cells.

The EC90 is the point of the concentration-response curve where the effect stands at 90%. For the compound `CSc1ccccc1C(=O)Nc1nc(-c2ccccn2)cs1` [MMV001246], in test [1] (setting [4]), the EC90 worked out at 5.39 µM. For the same compound, in test [2], the “DNA Synthesis Assay: Mean % Inhibition of EdU-labeling (normalized to parasite numbers), Average” value is reported as 72.11%; the “DNA Synthesis Assay: Mean % Inhibition of EdU-labeling (normalized to parasite numbers), Replicate 1” value is reported as 57.69%; the “DNA Synthesis Assay: Mean % Inhibition of EdU-labeling (normalized to parasite numbers), Replicate 2” value is listed as 70.62%; the “DNA Synthesis Assay: Mean % Inhibition of EdU-labeling (normalized to parasite numbers), Replicate 3” value is reported as 88.02%. Further, in test [3], the “Egress and Reinvasion Assay: Mean PV ratios (19.5h:6h), Average” value is 0.43; the “Egress and Reinvasion Assay: Mean PV ratios (19.5h:6h), Replicate 1a” value is given as 0.60; the “Egress and Reinvasion Assay: Mean PV ratios (19.5h:6h), Replicate 2a” value is listed as 0.25.
Turning to `c1ccc(CNc2nc(NC3CCCC3)nc3ccccc23)cc1` [B-5], in test [1] (setting [4]), the EC90 amounted to 7.22 µM. Besides, in test [2], the “DNA Synthesis Assay: Mean % Inhibition of EdU-labeling (normalized to parasite numbers), Average” value was -9.25%; the “DNA Synthesis Assay: Mean % Inhibition of EdU-labeling (normalized to parasite numbers), Replicate 1” value is on record as -17.04%; the “DNA Synthesis Assay: Mean % Inhibition of EdU-labeling (normalized to parasite numbers), Replicate 2” value was 19.85%; the “DNA Synthesis Assay: Mean % Inhibition of EdU-labeling (normalized to parasite numbers), Replicate 3” value is -30.57%. In addition, the DNA synthesis result in test [2] is “no”. For the same compound, in test [3], the “Egress and Reinvasion Assay: Mean PV ratios (19.5h:6h), Average” value is 1.49; the “Egress and Reinvasion Assay: Mean PV ratios (19.5h:6h), Replicate 1a” value amounted to 1.74; the “Egress and Reinvasion Assay: Mean PV ratios (19.5h:6h), Replicate 2a” value came out at 1.24.
On to `CC(C)c1c(C(=O)Nc2ccccc2)c(-c2ccccc2)c(-c2ccc(F)cc2)n1CC[C@@H](O)C[C@@H](O)CC(=O)O` [Atorvastatin], for which the EC90 in test [1] (Cryptosporidium parvum, HCT-8, read-out: Regular 3 to 48 h assay in vitro EC90, C. parvum in HCT-8 cells) amounted to 2.18 µM. In test [2], the “DNA Synthesis Assay: Mean % Inhibition of EdU-labeling (normalized to parasite numbers), Average” value was -4.60%; the “DNA Synthesis Assay: Mean % Inhibition of EdU-labeling (normalized to parasite numbers), Replicate 1” value is -2.45%; the “DNA Synthesis Assay: Mean % Inhibition of EdU-labeling (normalized to parasite numbers), Replicate 2” value was -19.78%; the “DNA Synthesis Assay: Mean % Inhibition of EdU-labeling (normalized to parasite numbers), Replicate 3” value was determined as 8.45%. In test [3], the “Egress and Reinvasion Assay: Mean PV ratios (19.5h:6h), Average” value stood at 1.88; the “Egress and Reinvasion Assay: Mean PV ratios (19.5h:6h), Replicate 1a” value came to 1.94; the “Egress and Reinvasion Assay: Mean PV ratios (19.5h:6h), Replicate 2a” value is recorded as 1.82.
Regarding `Oc1c(C(Nc2ccccn2)c2cccc(Oc3ccccc3)c2)ccc2cccnc12` (stereo not shown) [A-2], the EC90 in test [1] (setting [4]) is 1.34 µM. Moreover, the “DNA synthesis (mean % inhibition)” value in test [2] (EdU added 9 h post-infection for 2 h) amounted to 100.00%. Besides, in test [2], the “DNA Synthesis Assay: Mean % Inhibition of EdU-labeling (normalized to parasite numbers), Average” value came to 100.00%; the “DNA Synthesis Assay: Mean % Inhibition of EdU-labeling (normalized to parasite numbers), Replicate 1” value was 100%; the “DNA Synthesis Assay: Mean % Inhibition of EdU-labeling (normalized to parasite numbers), Replicate 2” value turned out to be 100%; the DNA synthesis entry is “yes”. Further, in test [3], the “Egress and Reinvasion Assay: Mean PV ratios (19.5h:6h), Average” value came to 0.69; the “Egress and Reinvasion Assay: Mean PV ratios (19.5h:6h), Replicate 1a” value worked out at 0.67; the “Egress and Reinvasion Assay: Mean PV ratios (19.5h:6h), Replicate 2a” value was 0.71.
